Results published in patent publication US20130045239A1, “Method for Modulating the Pharmacodynamic Effect of Orally Administered Guanylate Cyclase Receptor Agonists” (Ironwood Pharmaceuticals, Inc., priority 2009, published 2013).
Marks after values point to notes of the source that are not given here. Positions of bridges follow the written chain, without caps; N, C: chain ends. Residues, ends and D or L forms follow the SMILES beside them.

Key:
Format in all cases: in vivo, human
[1] = Linaclotide food effect study: plasma levels of linaclotide and its metabolite; conditions: for Cmax / Tmax: human, plasma, po, 3000 ug, single oral dose 3000 ug, fasted
Procedure: (§1) During the Pretreatment Phase of each Crossover Period, subjects were not to receive study drug. On Day 8 of Crossover Period 1 and Day 43 of Crossover Period 2, subjects started the Treatment Phase and were to receive 300 ug linaclotide once daily for a total of 7 days. On Day 14 and 15 of Crossover Period 1, blood was to be drawn to assay for linaclotide and its active metabolite. After the study procedures were completed on Day 15, subjects were discharged home with instructions to follow the same outpatient diet that they followed during the Screening Stage and to return to the Phase 1 unit on Day 35 for Crossover Period 2. On Day 50 of Crossover Period 2, subjects were to receive a single oral dose of 3000 ug linaclotide and were discharged from the Phase 1 unit on Day 51. After subjects received the 3000 ug dose, blood was to be drawn on Day 50 and 51 to assay for linaclotide and linaclotide metabolites.
Blood samples were to be collected at 0 hour (prior to dosing) and 0.5, 1, 2, 3, 4, 6 and 24 hours post dose on Day 14 of Crossover Period 1 and on Day 50 of Crossover Period 2, for determination of the following PK parameters for linaclotide and a metabolite of linaclotide (CCEYCCNPACTGC (SEQ ID NO: 10)) (if systemic levels of linaclotide and or the metabolite are detected): maximum observed plasma concentration (Cmax), time to maximum concentration (Tmax), area under the plasma concentration time curve (AUC0-t), area under the plasma concentration time curve extrapolated to infinity (AUC0-∞), clearance relative to bioavailability (CL/F), apparent volume of distribution (Vd/F), apparent terminal half life (t1/2).

[2] = test system: healthy volunteers; experiment: Linaclotide food effect study: pharmacodynamic effect on bowel habits under fed vs fasted conditions
Procedure: The randomized, open-label, two-period, two-sequence, crossover trial of oral linaclotide in healthy volunteers tested under fasted or fed conditions summarized herein was undertaken to determine if linaclotide is susceptible to a food effect. The study consisted of 4 stages: an 8-day to 15-day Screening Stage, two 15- to 16-day Crossover Periods (1 and 2), and a 21-day Washout Stage which was to occur between Crossover Periods 1 and 2. The doses tested in this study were 300 ug and a 1-day dose of 3000 ug at the end of Crossover Periods 1 and 2.
The study consisted of 4 stages: an 8-day to 15-day Screening Stage which was to take place at home and determine eligibility, two 15- to 16-day stages (Crossover Periods 1 and 2) which were to take place in a Phase 1 unit, and a 21-day Washout Stage which was to take place at home and occur between Crossover Periods 1 and 2. The individual study Stages are detailed below.
Eligible subjects were entered into the Phase 1 unit and were randomized to 1 of 2 Treatment Sequences. Sequence 1 (Fed-Fasted): During Crossover Period 1, linaclotide was to be administered immediately after a high-fat breakfast (the fed condition); during Crossover Period 2, linaclotide was to be administered after a 10-hour fast (the fasted condition). Sequence 2 (Fasted-Fed): During Crossover Period 1, linaclotide was to be administered under the fasted condition; during Crossover Period 2, linaclotide was to be administered under the fed condition.
Crossover Period 1 lasted for 15 days and Crossover Period 2 started on Day 35, immediately after the 21-day Washout Stage, and lasted for 16 days. Subjects were to record their bowel habits in their BHD and ingest their meals at the time determined by their randomization sequence. At a specified time on each day, the information in the BHD was to be reviewed by the site staff to insure appropriate completion.
as §1
Linaclotide was to be administered at the same time each morning with 240 cc (8 oz) of water; food was to be withheld for approximately 4 hr after dosing, and additional water was to be withheld from 1 hour before linaclotide administration until 1 hour after dosing. Under the fed condition, subjects were required to start and complete a high-fat breakfast during the 30 minutes before linaclotide administration. Under the fasted condition, linaclotide was to be administered following an overnight fast.
All meals and meal times were standardized during Crossover Periods 1 and 2 with the total daily calorie, fat, and fiber intake the same for each diet condition (fed and fasted). The daily quantity of these nutrients was based on the “United States Department of Agriculture (USDA) Dietary Recommendations for Americans.” Each subject received approximately 2000 total calories per day.
Linaclotide, 300 ug, oral gelatin capsule. Linaclotide, 3000 ug (5 oral gelatin capsules of 600 ug linaclotide each), single dose.
The primary endpoint was the change from Pretreatment Phase to Treatment Phase for each Crossover Period in stool consistency on the BSFS scale. […]

[3] = Linaclotide food effect study: 24-hour stool recovery; conditions: following 7 days of dosing at 300 ug per day, both fed and fasted conditions; predominately as a major linaclotide metabolite
Procedure: As for the 24-hour stool results, approximately 3 percent of a single dose of linaclotide was recovered on average following 7 days of dosing at 300 ug per day under both fed and fasted conditions. The recovery was predominately in the form of a major linaclotide metabolite.

[4] = 300 ug once daily, Fasted, last 4 days of treatment
[5] = 300 ug once daily, Fasted, over 7 days of treatment
[6] = 300 ug once daily, Fed, last 4 days of treatment
[7] = 300 ug once daily, Fed, over 7 days of treatment
[8] = 300 ug once daily, last 4 days of treatment
[9] = 300 ug once daily, over 7 days of treatment

Compound: C[C@@H]1NC(=O)[C@@H]2CCCN2C(=O)[C@H](CC(N)=O)NC(=O)[C@@H]2CSSC[C@H](N)C(=O)N[C@H]3CSSC[C@H](NC1=O)C(=O)N[C@@H]([C@@H](C)O)C(=O)NCC(=O)N[C@H](C(=O)N[C@@H](Cc1ccc(O)cc1)C(=O)O)CSSC[C@H](NC(=O)[C@H](Cc1ccc(O)cc1)NC(=O)[C@H](CCC(=O)O)NC3=O)C(=O)N2 [Linaclotide, Cys Cys Glu Tyr Cys Cys Asn Pro Ala Cys Thr Gly Cys Tyr] (H-CCEYCCNPACTGCY-OH; disulfide 1-6, 2-10, 5-13)
- Cmax ([1]; subject 001012): 0.735 ng/mL
- Tmax ([1]; subject 001012): 2 h
- Tmax ([1]; subject 001019): 0.5 h
- Cmax ([1]; subject 001019 (single measurable sample, at LLOQ)): 0.212 ng/mL
- CSBM, Change from Pretreatment Mean (SEM) [2, 4]: 0.39 (0.293)
- SBM, Change from Pretreatment Mean (SEM) [2, 4]: 0.72 (0.419)
- BSFS Score, Change from Pretreatment Mean (SEM) ([2]; 300 ug once daily, Fasted, last 4 days of treatment (Sensitivity Analysis)): 1.97 (0.174)
- BSFS Score, Change from Pretreatment Mean (SEM) [2, 5]: 1.84 (0.177)
- CSBM, Change from Pretreatment Mean (SEM) [2, 5]: 1.00 (0.443)
- SBM, Change from Pretreatment Mean (SEM) [2, 5]: 1.50 (0.487)
- Straining Score, Change from Pretreatment Mean (SEM) [2, 5]: −0.17 (0.057)
- CSBM, Change from Pretreatment Mean (SEM) [2, 6]: 1.00 (0.647)
- SBM, Change from Pretreatment Mean (SEM) [2, 6]: 2.28 (0.704)
- BSFS Score, Change from Pretreatment Mean (SEM) ([2]; 300 ug once daily, Fed, last 4 days of treatment (Sensitivity Analysis)): 2.36 (0.230)
- BSFS Score, Change from Pretreatment Mean (SEM) [2, 7]: 2.45 (0.159)
- CSBM, Change from Pretreatment Mean (SEM) [2, 7]: 4.06 (1.181)
- SBM, Change from Pretreatment Mean (SEM) [2, 7]: 5.94 (1.503)
- Straining Score, Change from Pretreatment Mean (SEM) [2, 7]: −0.16 (0.064)
- CSBM, Difference Mean and 90 percent CI Fed-Fasted Difference [2, 8]: 0.61 (−0.49, 1.71)
- SBM, Difference Mean and 90 percent CI Fed-Fasted Difference [2, 8]: 1.56 (0.60, 2.51)
- BSFS Score, Difference Mean and 90 percent CI Fed-Fasted Difference ([2]; 300 ug once daily, last 4 days of treatment (Sensitivity Analysis)): 0.38 (−0.09, 0.86)
- BSFS Score, Difference Mean and 90% CI Fed-Fasted Difference [2, 9]: 0.61 (0.25, 0.98)^c
- CSBM, Difference Mean and 90% CI Fed-Fasted Difference [2, 9]: 3.06 (0.90, 5.21)
- SBM, Difference Mean and 90% CI Fed-Fasted Difference [2, 9]: 4.44 (2.22, 6.67)
- Straining Score, Difference Mean and 90% CI Fed-Fasted Difference [2, 9]: 0.01 (−0.12, 0.14)
- Equivalence of fasted versus fed condition on change from pretreatment BSFS Scores (primary endpoint analysis) ([2]; 300 ug, 7 days of treatment, 90 percent CI against equivalence margins of ±0.6125): did not demonstrate equivalence
- Equivalence of fed versus fasted condition on BSFS Score (Sensitivity Analysis) ([2]; 300 ug, last 4 days of treatment, 90 percent CI against equivalence margins of ±0.6125): did not fall within the equivalence margins
- Recovery of a single dose in 24-hour stool, on average [3]: approximately 3%

Compound: CCEYCCNPACTGC (Synthetically generated peptide) [linaclotide metabolite, a metabolite of linaclotide]
- Plasma level of linaclotide metabolite ([1]; 300 ug linaclotide oral for 7 days of treatment, all subjects, no quantifiable levels, limit of detection=2.0 ng/ml): < 2.0 ng/mL
- Metabolite in plasma ([1]; after linaclotide dosing (300 ug and 3000 ug), any subject): No metabolite (SEQ ID NO: 10) was detected
